Measured values as given in paper PMC12040169 (PLOS Biology, 2025).

Assay: in vitro
Details: human, hela cells, % viability

Compound	viability at 28.5 h, 10 µM [%]
c1ccc(OCCOc2nccnc2-c2ccc3c(c2)OCO3)cc1 [CBK106714]	96.1
c1cc(-c2nccnc2Oc2ccc3c(c2)OCO3)ccn1 [CBK106726]	92.4
c1cc(-c2nccnc2OC2CCCCC2)ccn1 [CBK106727]	87.8
c1ccc(C(Oc2nccnc2-c2ccncc2)c2ccccc2)cc1 [CBK106728]	89.1
c1cc(-c2nccnc2OCCn2ccnc2)ccn1 [CBK106737]	87
COc1ncc(-c2nccnc2OCCc2c[nH]c3ccccc23)c(OC)n1 [CBK106743]	79.2
COc1ncc(-c2nccnc2OC2CCCCC2)c(OC)n1 [CBK106745]	90.8
COc1ncc(-c2nccnc2OCc2ccccc2)c(OC)n1 [CBK106748]	108
COc1ncc(-c2nccnc2OCc2cccs2)c(OC)n1 [CBK106750]	102
O=C1CCCN1CCOc1nccnc1-c1ccsc1 [CBK106759]	89.7
O=C1c2ccccc2C(=O)N1CCOc1nccnc1-c1ccsc1 [CBK106760]	90.4
c1ccc(C(Oc2nccnc2-c2ccsc2)c2ccccc2)cc1 [CBK106765]	103
c1ccc(OCCOc2nccnc2-c2ccsc2)cc1 [CBK106773]	103
CC(C)N(CCOc1nccnc1-c1ccsc1)C(C)C [CBK106777]	111
CCCCOc1nccnc1-c1ccsc1 [CBK106778]	101
O=C1CCCN1CCOc1nccnc1-c1cc2ccccc2s1 [CBK106780]	91
CC(=O)Nc1cccc(Oc2nccnc2-c2cc3ccccc3s2)c1 [CBK106784]	101
c1ccc(OCCOc2nccnc2-c2cc3ccccc3s2)cc1 [CBK106787]	92.3
COc1nccnc1-c1ccc(SC)cc1 [CBK106795]	95
CSc1ccc(-c2nccnc2OCCN(C(C)C)C(C)C)cc1 [CBK106805]	107
COc1ccccc1-c1nccnc1OC [CBK106811]	93.7
COc1ccccc1-c1nccnc1OCCn1cnc2c1c(=O)n(C)c(=O)n2C [CBK106816]	109
COc1ccccc1-c1nccnc1OCc1ccccc1 [CBK106817]	108
COc1ccccc1-c1nccnc1OCCC(C)C [CBK106818]	109

Compound	viability at 28.5 h, 10 µM [%]
COc1ccccc1-c1nccnc1OCc1cccs1 [CBK106819]	88.4
COc1ccccc1-c1nccnc1OCCn1cccc1 [CBK106820]	91.3
COc1ccccc1-c1nccnc1OCc1cccc(OC)c1OC [CBK106825]	81.2
COc1ccc(CCOc2nccnc2-c2ccc(OC(F)(F)F)cc2)cc1 [CBK106846]	109
CC(C)N(CCOc1nccnc1-c1ccc(OC(F)(F)F)cc1)C(C)C [CBK106848]	89.3
Cc1ccc(-c2nccnc2OCCc2c[nH]c3ccccc23)cc1C [CBK106850]	96
Cc1ccc(-c2nccnc2OCCn2cccc2)cc1C [CBK106864]	101
C(=C\c1nccnc1OCCc1c[nH]c2ccccc12)/c1ccccc1 [CBK106872]	91.7
C(=C\c1nccnc1OCc1ccccn1)/c1ccccc1 [CBK106874]	105
O=C1CCCN1CCOc1nccnc1/C=C/c1ccccc1 [CBK106875]	92.4
O=C1NCCN1CCOc1nccnc1/C=C/c1ccccc1 [CBK106879]	96
CC(=O)Nc1ccc(CCOc2nccnc2/C=C/c2ccccc2)cc1 [CBK106880]	94.1
CC(=O)Nc1cccc(Oc2nccnc2/C=C/c2ccccc2)c1 [CBK106881]	91.6
C(=C\c1nccnc1OCc1cccs1)/c1ccccc1 [CBK106883]	112
C(=C\c1nccnc1OCCn1cccc1)/c1ccccc1 [CBK106884]	94
COc1cccc(COc2nccnc2/C=C/c2ccccc2)c1OC [CBK106888]	89.3
CCCCOc1nccnc1/C=C/c1ccccc1 [CBK106890]	92
Fc1ccc(-c2nccnc2OCc2ccccn2)cc1 [CBK106894]	99.6
COc1cccc(Oc2nccnc2-c2ccc(F)cc2)c1 [CBK106897]	93.5
CC(=O)Nc1cccc(Oc2nccnc2-c2ccc(F)cc2)c1 [CBK106900]	37.1
COCOc1ccc(-c2nccnc2OCCc2cccs2)cc1 [CBK106911]	106
COCOc1ccc(-c2nccnc2OCCN2C(=O)c3ccccc3C2=O)cc1 [CBK106913]	111
COCOc1ccc(-c2nccnc2OC)cc1 [CBK106914]	111
COCOc1ccc(-c2nccnc2OC2CCCCC2)cc1 [CBK106917]	94.3

Compound	viability at 28.5 h, 10 µM [%]
COCc1cccc(-c2nccnc2OC)c1 [CBK106956]	95.2
COCc1cccc(-c2nccnc2Oc2cccc(OC)c2)c1 [CBK106958]	90.6
COCc1cccc(-c2nccnc2OC2CCCCC2)c1 [CBK106959]	87.5
COCc1cccc(-c2nccnc2OC(c2ccccc2)c2ccccc2)c1 [CBK106960]	101
Cc1ccc(-c2nccnc2OCCN2C(=O)c3ccccc3C2=O)c(C)c1 [CBK106981]	90
Cc1ccc(-c2nccnc2OCc2ccc3c(c2)OCO3)c(C)c1 [CBK106982]	93.1
CC(=O)Nc1cccc(Oc2nccnc2-c2ccc(C)cc2C)c1 [CBK106986]	95.3
Cc1ccc(-c2nccnc2OCCC(C)C)c(C)c1 [CBK106988]	102
COc1cccc(COc2nccnc2-c2ccc(C)cc2C)c1OC [CBK106995]	93.2
c1csc(-c2nccnc2OC2CCCCC2)c1 [CBK107060]	90.2
c1ccc(C(Oc2nccnc2-c2cccs2)c2ccccc2)cc1 [CBK107061]	112
c1csc(-c2nccnc2OCC2COc3ccccc3O2)c1 (centres unmarked) [CBK107063]	101
Cn1cc(-c2nccnc2OCCc2cccs2)cn1 [CBK107066]	95
Cn1cc(-c2nccnc2OCCN2CCCC2=O)cn1 [CBK107068]	106
Cn1cc(-c2nccnc2OC(c2ccccc2)c2ccccc2)cn1 [CBK107073]	103
CC(C)N(CCOc1nccnc1-c1cnn(C)c1)C(C)C [CBK107084]	103
CCCCOc1nccnc1-c1cnn(C)c1 [CBK107085]	92.8
c1ccc(Cn2cc(-c3nccnc3OCc3ccccn3)cn2)cc1 [CBK107088]	98.9
c1ccc(Cn2cc(-c3nccnc3OC(c3ccccc3)c3ccccc3)cn2)cc1 [CBK107093]	88.2
O=C1NCCN1CCOc1nccnc1-c1cnn(Cc2ccccc2)c1 [CBK107094]	86.3
CC(=O)Nc1cccc(Oc2nccnc2-c2cnn(Cc3ccccc3)c2)c1 [CBK107096]	101
COc1nccnc1-c1ccc(Cl)c(Cl)c1 [CBK107110]	98.7
CN1CCCN(C(=O)c2ccc(-c3nc(-c4ccc(C#N)cc4)cnc3N)cc2)CC1 [CBK107140]	93.9
